The record followed here is paper PMC12285253, “Insights into genetic determinants of volatile fatty acid catabolism in Cupriavidus necator H16” (Applied and Environmental Microbiology, 2025).

One assay concerns the target T1, H16_B1335 (Cupriavidus necator, UniProt Q0K1J9).
T1 sequence (Q0K1J9 1-562): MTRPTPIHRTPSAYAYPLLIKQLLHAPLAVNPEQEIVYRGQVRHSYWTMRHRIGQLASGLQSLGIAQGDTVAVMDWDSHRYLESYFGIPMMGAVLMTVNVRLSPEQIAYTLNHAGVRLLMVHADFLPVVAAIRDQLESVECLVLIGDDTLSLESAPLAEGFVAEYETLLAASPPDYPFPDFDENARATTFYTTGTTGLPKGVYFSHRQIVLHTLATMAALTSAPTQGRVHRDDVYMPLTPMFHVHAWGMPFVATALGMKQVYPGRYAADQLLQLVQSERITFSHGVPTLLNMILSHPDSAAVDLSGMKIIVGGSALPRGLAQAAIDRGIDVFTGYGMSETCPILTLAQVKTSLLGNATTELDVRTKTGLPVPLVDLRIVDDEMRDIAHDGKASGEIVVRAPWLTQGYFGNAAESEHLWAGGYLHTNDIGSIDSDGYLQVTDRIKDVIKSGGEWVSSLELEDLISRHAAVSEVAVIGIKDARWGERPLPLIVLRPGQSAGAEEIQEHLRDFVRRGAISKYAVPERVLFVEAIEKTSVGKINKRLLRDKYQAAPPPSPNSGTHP
As to the kind of experiment: coupled NADH assay of ATP consumption (myokinase, pyruvate kinase, lactate dehydrogenase). Format: biochemical. Particulars: 2 mM substrate, 1 mM CoA, 2.1 mM ATP, 5 mM MgCl2, pH 7.5.

The target of the next assay is T2, H16_B1148 (Cupriavidus necator, UniProt Q0K235).
T2 construct: N-terminal hexahistidine tag, E. coli BL21(DE3) delta-patZ, Ni-NTA and SEC
T2 sequence (Q0K235 1-544): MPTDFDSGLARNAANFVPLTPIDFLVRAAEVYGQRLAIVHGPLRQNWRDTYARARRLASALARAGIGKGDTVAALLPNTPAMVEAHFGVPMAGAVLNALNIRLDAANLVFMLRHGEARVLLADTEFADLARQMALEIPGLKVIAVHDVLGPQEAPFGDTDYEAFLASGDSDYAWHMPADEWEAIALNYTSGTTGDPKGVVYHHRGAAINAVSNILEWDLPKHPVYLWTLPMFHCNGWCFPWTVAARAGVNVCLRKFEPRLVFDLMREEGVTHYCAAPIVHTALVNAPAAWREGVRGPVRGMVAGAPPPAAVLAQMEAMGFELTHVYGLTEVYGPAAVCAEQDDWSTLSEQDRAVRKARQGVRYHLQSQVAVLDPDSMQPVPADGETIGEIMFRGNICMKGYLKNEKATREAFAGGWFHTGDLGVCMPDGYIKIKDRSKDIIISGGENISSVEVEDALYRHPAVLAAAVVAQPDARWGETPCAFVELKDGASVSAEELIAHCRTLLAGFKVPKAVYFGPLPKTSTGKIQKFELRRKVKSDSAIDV
Described as above. Format: biochemical. To be noted: 2 mM substrate, 1 mM CoA, 2.1 mM ATP, 5 mM MgCl2, pH 7.5.

Take `CCCCCC(=O)O` [C6, hexanoate]: the relative activity result on H16_B1335 is given as “the relative activity of H16_B1335 skewed toward longer chain lengths”.

As to `CCC(=O)O` [C3, propionate], at H16_B1148, the relative activity entry is recorded as “The relative activity of H16_B1148 skewed toward shorter chain lengths”. On to `CCCCC(=O)O` [C5, valerate], for which the relative activity result at H16_B1335 was “our in vitro assay results demonstrating that H16_B1335 is also active on valerate”.
